The values below come from patent US20220248678A1, “HERBICIDAL COMPOUNDS” (SYNGENTA CROP PROTECTION AG, priority 2019, published 2022).

Common to all, as to test: Post-emergence efficacy, glasshouse
Holding throughout (assay type): in vivo
Details in all cases: after 13 days, 100=total damage to plant, 0=no damage to plant

The subject of assay [1] is Echinochloa crus-galli (ECHCG). The method, then:
(§1) Seeds of a variety of test species were shown in standard soil in pots. After cultivation for 14 days (post-emergence) under controlled conditions in a glasshouse (at 24/16° C., day/night; 14 hours light; 65% humidity), the plants were sprayed with an aqueous spray solution derived from the dissolution of the technical active ingredient for each of compounds 1 to 26 from Table A above, in a small amount of acetone and a special solvent and emulsifier mixture referred to as IF50 (11.12% Emulsogen EL360 TM+44.44% N-methylpyrrolidone+44.44% Dowanol DPM glycol ether), to create a 50 g/I solution which was then diluted to required concentration using 0.25% or 1% Empicol ESC70 (Sodium lauryl ether sulphate)+1% ammonium sulphate in water as diluent. These spray test compositions are described as composition numbers C1 to C26, with the numerical value corresponding to the compound number from Table A.
(§2) The test plants were then grown in a glasshouse under controlled conditions (at 24/16° C., day/night; 14 hours light; 65% humidity) and watered twice daily. After 13 days the test was evaluated (100=total damage to plant; 0=no damage to plant).
(§3) Ipomoea hederacea (IPOHE), Euphorbia heterophylla (EPHHL), Chenopodium album (CHEAL), Amaranthus palmeri (AMAPA), Lolium perenne (LOLPE), Digitaria sanguinalis (DIGSA), Eleusine indica (ELEIN), Echinochloa crus-galli (ECHCG), Setaria faberi (SETFA)

Assay [2] has as its system Ipomoea hederacea (IPOHE). The protocol: as §1, §2, §3
Assay [3] deals with Setaria faberi (SETFA). The protocol:
as §1, §2, §3

For assay [4], the system named is Amaranthus palmeri (AMAPA). The protocol:
as §1, §2, §3

Assay [5] concerns Euphorbia heterophylla (EPHHL). The method, then:
as §1, §2, §3

Assay [6] relates to Eleusine indica (ELEIN). The method, then: as §1, §2, §3
Assay [7] deals with Digitaria sanguinalis (DIGSA). The protocol:
as §1, §2, §3

The test system of assay [8] is Lolium perenne (LOLPE). The method, then:
as §1, §2, §3

Assay [9] has as its system Chenopodium album (CHEAL). The protocol: as §1, §2, §3

As to `C[n+]1cc(P(=O)([O-])OCC2CCCO2)c2ccccc2n1` (stereo not drawn) [Composition C25], the “Control of weed species ECHCG” value in assay [1] (1000 g/Ha) came out at 90. Moreover, the “Control of weed species IPOHE” value in [2] (1000 g/Ha) worked out at 60. Besides, the “Control of weed species SETFA” value in assay [3] (1000 g/Ha) was 80. Also, the “Control of weed species AMAPA” value in assay [4] (1000 g/Ha) amounted to 100. Besides, the “Control of weed species EPHHL” value in [5] (1000 g/Ha) is 80. Besides, in [6] (1000 g/Ha), the “Control of weed species ELEIN” value was 100. For the same compound, the “Control of weed species DIGSA” value in [7] (1000 g/Ha) was 50. The “Control of weed species LOLPE” value in assay [8] (1000 g/Ha) was found to be 60. Also, the “Control of weed species CHEAL” value in assay [9] (1000 g/Ha) came out at 90.

As for `COP(=O)([O-])c1c(C)[n+](C)nc2ccccc12` [Composition C9], the “Control of weed species ECHCG” value in assay [1] (1000 g/Ha) came to 40. Besides, the “Control of weed species IPOHE” value in assay [2] (1000 g/Ha) was 90. Moreover, the “Control of weed species SETFA” value in assay [3] (1000 g/Ha) came out at 70. The “Control of weed species AMAPA” value in assay [4] (1000 g/Ha) stood at 100. In addition, in assay [5] (1000 g/Ha), the “Control of weed species EPHHL” value was 50. Further, the “Control of weed species ELEIN” value in assay [6] (1000 g/Ha) was found to be 80. Moreover, the “Control of weed species DIGSA” value in assay [7] (1000 g/Ha) is 80. For the same compound, the “Control of weed species LOLPE” value in assay [8] (1000 g/Ha) came out at 50. In assay [9] (1000 g/Ha), the “Control of weed species CHEAL” value amounted to 90.

Take `C=CCOP(=O)([O-])c1c[n+](C)nc2ccccc12` [Composition C5]: the “Control of weed species ECHCG” value in [1] (500 g/Ha) is 90. Further, the “Control of weed species IPOHE” value in [2] (500 g/Ha) turned out to be 70. Further, the “Control of weed species SETFA” value in assay [3] (500 g/Ha) is 80. For the same compound, in assay [4] (500 g/Ha), the “Control of weed species AMAPA” value is 90. In assay [5] (500 g/Ha), the “Control of weed species EPHHL” value amounted to 90. Also, in [6] (500 g/Ha), the “Control of weed species ELEIN” value was found to be 100. Further, the “Control of weed species DIGSA” value in assay [7] (500 g/Ha) was determined as 90. Besides, the “Control of weed species LOLPE” value in assay [8] (500 g/Ha) is 60. Besides, the “Control of weed species CHEAL” value in [9] (500 g/Ha) came to 100.

Regarding `C[n+]1cc(P(=O)([O-])OCC2CC2)c2ccccc2n1` [Composition C7], the “Control of weed species ECHCG” value in [1] (1000 g/Ha) was 80. Moreover, in [2] (1000 g/Ha), the “Control of weed species IPOHE” value stood at 100. Also, the “Control of weed species SETFA” value in assay [3] (1000 g/Ha) worked out at 90. Further, the “Control of weed species AMAPA” value in assay [4] (1000 g/Ha) is listed as 90. In assay [5] (1000 g/Ha), the “Control of weed species EPHHL” value is reported as 100. For the same compound, the “Control of weed species ELEIN” value in assay [6] (1000 g/Ha) came to 100. The “Control of weed species DIGSA” value in assay [7] (1000 g/Ha) is 100. Also, the “Control of weed species LOLPE” value in assay [8] (1000 g/Ha) worked out at 60. Further, the “Control of weed species CHEAL” value in assay [9] (1000 g/Ha) is reported as 90.

On to `COP(=O)([O-])c1c[n+](C)nc2ccc(C)cc12` [Composition C13], for which the “Control of weed species ECHCG” value in assay [1] (500 g/Ha) is recorded as 90. In addition, the “Control of weed species IPOHE” value in [2] (500 g/Ha) is on record as 70. Besides, the “Control of weed species SETFA” value in [3] (500 g/Ha) is listed as 100. Moreover, in assay [4] (500 g/Ha), the “Control of weed species AMAPA” value is 100. For the same compound, in assay [5] (500 g/Ha), the “Control of weed species EPHHL” value amounted to 100. Moreover, the “Control of weed species ELEIN” value in assay [6] (500 g/Ha) is recorded as 100. The “Control of weed species DIGSA” value in [7] (500 g/Ha) turned out to be 100. The “Control of weed species LOLPE” value in [8] (500 g/Ha) amounted to 30. Moreover, in [9] (500 g/Ha), the “Control of weed species CHEAL” value worked out at 100.

As to `CCOP(=O)(O)c1c[n+](C)nc2ccccc12.[Cl-]` [Composition C3], the “Control of weed species ECHCG” value in [1] (1000 g/Ha) is listed as 70. Also, the “Control of weed species IPOHE” value in assay [2] (1000 g/Ha) came out at 100. In [3] (1000 g/Ha), the “Control of weed species SETFA” value is reported as 90. The “Control of weed species AMAPA” value in [4] (1000 g/Ha) is listed as 90. In addition, the “Control of weed species EPHHL” value in assay [5] (1000 g/Ha) is listed as 100. Moreover, the “Control of weed species ELEIN” value in assay [6] (1000 g/Ha) is given as 90. The “Control of weed species DIGSA” value in assay [7] (1000 g/Ha) is 100. Further, the “Control of weed species LOLPE” value in assay [8] (1000 g/Ha) is on record as 50. The “Control of weed species CHEAL” value in [9] (1000 g/Ha) is on record as 100.

In the case of `C[n+]1cc(P(=O)([O-])OCC(F)(F)F)c2ccccc2n1` [Composition C6], the “Control of weed species ECHCG” value in [1] (1000 g/Ha) amounted to 100. Further, the “Control of weed species IPOHE” value in [2] (1000 g/Ha) is reported as 100. Further, the “Control of weed species SETFA” value in assay [3] (1000 g/Ha) is 90. Further, in [4] (1000 g/Ha), the “Control of weed species AMAPA” value came to 100. Moreover, in [5] (1000 g/Ha), the “Control of weed species EPHHL” value is on record as 100. For the same compound, in assay [6] (1000 g/Ha), the “Control of weed species ELEIN” value is listed as 100. For the same compound, the “Control of weed species DIGSA” value in assay [7] (1000 g/Ha) is recorded as 100. In assay [8] (1000 g/Ha), the “Control of weed species LOLPE” value was 80. Also, the “Control of weed species CHEAL” value in assay [9] (1000 g/Ha) is listed as 100.

For `C[n+]1cc(P(=O)([O-])OCc2ccccc2)c2ccccc2n1` [Composition C22], the “Control of weed species ECHCG” value in assay [1] (500 g/Ha) is 20. Besides, in assay [2] (500 g/Ha), the “Control of weed species IPOHE” value is listed as 20. Also, in assay [3] (500 g/Ha), the “Control of weed species SETFA” value turned out to be 30. Also, the “Control of weed species AMAPA” value in assay [4] (500 g/Ha) was 10. In addition, the “Control of weed species EPHHL” value in assay [5] (500 g/Ha) was 60. Moreover, the “Control of weed species ELEIN” value in [6] (500 g/Ha) was found to be 60. In assay [7] (500 g/Ha), the “Control of weed species DIGSA” value was found to be 60. Besides, in assay [8] (500 g/Ha), the “Control of weed species LOLPE” value was found to be 10. Further, the “Control of weed species CHEAL” value in [9] (500 g/Ha) was found to be 20.

`CCCOP(=O)([O-])c1c[n+](C)nc2ccccc12` [Composition C21]: in assay [1] (500 g/Ha), the “Control of weed species ECHCG” value is 70. Besides, the “Control of weed species IPOHE” value in assay [2] (500 g/Ha) stood at 100. The “Control of weed species SETFA” value in assay [3] (500 g/Ha) came to 100. For the same compound, the “Control of weed species AMAPA” value in assay [4] (500 g/Ha) is reported as 100. For the same compound, the “Control of weed species EPHHL” value in [5] (500 g/Ha) was 100. In addition, in assay [6] (500 g/Ha), the “Control of weed species ELEIN” value is 100. Also, in assay [7] (500 g/Ha), the “Control of weed species DIGSA” value was 100. Besides, the “Control of weed species LOLPE” value in [8] (500 g/Ha) is 70. For the same compound, the “Control of weed species CHEAL” value in assay [9] (500 g/Ha) stood at 100.

On to `COc1ccc2c(P(=O)([O-])OC)c[n+](C)nc2c1` [Composition C17], for which the “Control of weed species ECHCG” value in assay [1] (1000 g/Ha) stood at 10. Also, in assay [2] (1000 g/Ha), the “Control of weed species IPOHE” value came out at 10. Moreover, the “Control of weed species SETFA” value in [3] (1000 g/Ha) was found to be 10. Besides, the “Control of weed species AMAPA” value in [4] (1000 g/Ha) was found to be 10. Also, in [5] (1000 g/Ha), the “Control of weed species EPHHL” value amounted to 20. For the same compound, in assay [6] (1000 g/Ha), the “Control of weed species ELEIN” value was determined as 10. For the same compound, the “Control of weed species DIGSA” value in assay [7] (1000 g/Ha) is listed as 10. Further, the “Control of weed species LOLPE” value in [8] (1000 g/Ha) came out at 0. The “Control of weed species CHEAL” value in assay [9] (1000 g/Ha) was determined as 10.

`COP(=O)([O-])c1c[n+](C)nc2ccc(C(F)(F)F)cc12` [Composition C19]: in assay [1] (500 g/Ha), the “Control of weed species ECHCG” value came out at 10. The “Control of weed species IPOHE” value in assay [2] (500 g/Ha) is recorded as 0. For the same compound, the “Control of weed species SETFA” value in [3] (500 g/Ha) stood at 10. Besides, in [4] (500 g/Ha), the “Control of weed species AMAPA” value stood at 10. Further, the “Control of weed species EPHHL” value in [5] (500 g/Ha) was 0. Also, the “Control of weed species ELEIN” value in assay [6] (500 g/Ha) came to 10. In addition, in assay [7] (500 g/Ha), the “Control of weed species DIGSA” value was found to be 10. In assay [8] (500 g/Ha), the “Control of weed species LOLPE” value is listed as 10. Besides, the “Control of weed species CHEAL” value in assay [9] (500 g/Ha) was 10.
